Here are results for two compounds from article PMC7979765, “trans-Translation inhibitors bind to a novel site on the ribosome and clear Neisseria gonorrhoeae in vivo” (Nature Communications, 2021).

Data set [1] relates to HeLa cells. Briefly: Mammalian cell cytotoxicity (CC50). It is filed as cell-based, human. To be noted: HeLa, replicates. On the procedure: The half maximal cytotoxic concentration (CC50) of each compound against HeLa cells (ATCC CCL-2) was measured as previously described. […] The mean values for each biological replicate were averaged, and the CC50 was determined using a 4-parameter nonlinear curve fitting algorithm (GraphPad Prism). The average of the CC50s from two biological replicates was calculated and reported.

The nature of data set [2]: Aqueous solubility (nephelometric). Conditions: for Solubility: single replicates. It is filed as physicochemical.
The subject of data set [3] is Neisseria gonorrhoeae. The data set is described as follows: MIC, microbroth dilution, G77L medium. Type of data set: cell-based. To be noted: Neisseria gonorrhoeae ATCC 49226; source data, individual replicates.
Data set [4] deals with Escherichia coli. The data set is described as follows: microbe, parasite or virus in culture. To be noted: E. coli KLE701 (ΔtolC::tet); source data, individual replicates. It is filed as cell-based.
Data set [5] can be described thus: Liver microsome stability, murine. It is filed as in vitro ADME, mouse. To be noted: murine liver microsomes; for Average MLMS t½: average of replicates; for MLMS t½: individual replicates. As to the method:
To examine potential for first-pass metabolism of analogs in the liver, the stability of analogs in the presence of liver microsome preparations (Eurofins Discovery for human, dog and rat; Xenotech for mouse) was measured using the method of Kuhnz, et al.[50]. for murine studies and Oback for the dog, human and rat studies. The amount of parent compound remaining after incubation with microsomes in the presence of NADPH over a 30 min time range was measured using a reverse-phase liquid chromatography/mass spectroscopy method that was customized for each compound. Half-lives were calculated using linear regression analysis of several time points.

Data set [6] concerns HeLa cells. Briefly: Mammalian cell cytotoxicity (CC50). It is filed as cell-based, human. Conditions: one value per replicate.

SMILES strings stand for the structures. Values after ≈ are worked out from the molar mass of the structure shown. Values joined by “and” are separate entries in the source; they are usually repeats but may differ in a detail not shown here. Equal entries are not always repeated. A value given as a limit tells only on which side of the number the result lay.

Turning to `O=C(Nc1nnc(-c2ccc(F)cc2)o1)N1CCCCCC1` [MBX-4700], the “NORMALIZED DATA (Fraction DMSO Control)” value in data set [1] ([CMPD] 0.78125 µM) is 1.19 Fraction DMSO Control and 0.9349 Fraction DMSO Control and 0.9879 Fraction DMSO Control; in data set [1] ([CMPD] 1.5625 µM) it was 1.113 Fraction DMSO Control and 0.9447 Fraction DMSO Control and 0.9899 Fraction DMSO Control; in data set [1] ([CMPD] 3.125 µM), 1.151 Fraction DMSO Control and 1.008 Fraction DMSO Control and 1.078 Fraction DMSO Control; in data set [1] ([CMPD] 6.25 µM), 0.9458 Fraction DMSO Control and 0.9081 Fraction DMSO Control and 0.9843 Fraction DMSO Control; in data set [1] ([CMPD] 12.5 µM), 0.7537 Fraction DMSO Control and 0.7467 Fraction DMSO Control and 0.8509 Fraction DMSO Control; in data set [1] ([CMPD] 25 µM) it was 0.8669 Fraction DMSO Control and 0.6852 Fraction DMSO Control and 0.8634 Fraction DMSO Control. Besides, the “NORMALIZED DATA (Fraction DMSO Control)” value is 0.8891 Fraction DMSO Control and 0.7812 Fraction DMSO Control and 0.7745 Fraction DMSO Control in data set [1] ([CMPD] 50 µM); 0.8207 Fraction DMSO Control and 0.7165 Fraction DMSO Control and 0.6953 Fraction DMSO Control in data set [1] ([CMPD] 100 µM). For the same compound, the “Average solubility” value in data set [2] worked out at 25 µM. The Solubility in data set [2] is 25 µM (≈ 7.61 µg/mL). The MIC in data set [3] is 0.951 µg/mL and 0.4755 µg/mL; in data set [4], 3.804 µg/mL and 7.608 µg/mL. In addition, the “Average MLMS t½” value in data set [5] is listed as 19 min. For the same compound, the “MLMS t½” value in data set [5] was 16.8 min and 21.8 min. In data set [6], this compound returned a half-maximal cytotoxic concentration (CC50) of at least 100 µM.

Consider `O=C(Nc1nnc(-c2ccc(F)cc2)o1)C1CCCCC1` [MBX-3709], for which the “NORMALIZED DATA (Fraction DMSO Control)” value in data set [1] ([CMPD] 0.78125 µM) is 0.9843 Fraction DMSO Control and 0.9839 Fraction DMSO Control and 1.011 Fraction DMSO Control and 0.9844 Fraction DMSO Control and 1.002 Fraction DMSO Control and 0.9797 Fraction DMSO Control; in data set [1] ([CMPD] 1.5625 µM) it was 1.013 Fraction DMSO Control and 1.069 Fraction DMSO Control and 1.052 Fraction DMSO Control and 1.032 Fraction DMSO Control and 1.012 Fraction DMSO Control and 1.033 Fraction DMSO Control; in data set [1] ([CMPD] 3.125 µM), 1.017 Fraction DMSO Control and 1.012 Fraction DMSO Control and 1.028 Fraction DMSO Control and 1.006 Fraction DMSO Control and 0.9958 Fraction DMSO Control and 1.035 Fraction DMSO Control; in data set [1] ([CMPD] 6.25 µM), 0.9952 Fraction DMSO Control and 1.018 Fraction DMSO Control and 1.016 Fraction DMSO Control and 1.009 Fraction DMSO Control and 1.013 Fraction DMSO Control and 1.001 Fraction DMSO Control; in data set [1] ([CMPD] 12.5 µM), 1.025 Fraction DMSO Control and 1.013 Fraction DMSO Control and 1.022 Fraction DMSO Control and 1.004 Fraction DMSO Control and 1.002 Fraction DMSO Control and 1.0412 Fraction DMSO Control; in data set [1] ([CMPD] 25 µM), 1.006 Fraction DMSO Control and 1.033 Fraction DMSO Control and 1.009 Fraction DMSO Control and 1.014 Fraction DMSO Control and 0.9855 Fraction DMSO Control and 1.046 Fraction DMSO Control. Further, the “NORMALIZED DATA (Fraction DMSO Control)” value in data set [1] ([CMPD] 50 µM) is 0.7814 Fraction DMSO Control and 0.7858 Fraction DMSO Control and 0.7422 Fraction DMSO Control and 0.8088 Fraction DMSO Control and 0.7466 Fraction DMSO Control and 0.7859 Fraction DMSO Control; in data set [1] ([CMPD] 100 µM), 0.7348 Fraction DMSO Control and 0.7441 Fraction DMSO Control and 0.7211 Fraction DMSO Control and 0.7931 Fraction DMSO Control and 0.7717 Fraction DMSO Control and 0.7681 Fraction DMSO Control. Besides, in data set [2], the “Average solubility” value amounted to 25 µM. The same compound had a Solubility in data set [2] of 25 µM (≈ 7.23 µg/mL). Moreover, the MIC in data set [3] was 7.233 µg/mL and 3.616 µg/mL; in data set [4], 28.931 µg/mL (≈ 100 µM). In data set [5], the “Average MLMS t½” value is below 5 min. Besides, in data set [5], the “MLMS t½” value is given as below 5 min. In data set [6], this compound registered a CC50 of at least 100 µM.
